Entries after “also recorded” stand apart in the source; their conditions may differ. *1 amine or outer side, *2 acyl side, *3 side chain or, on linkers, in order; H or OH if unused. Where a SMILES comes first, the peptide text is derived from it. Bridges are numbered along the chain shown (N, C = ends). Roman numbers before positions name the chains, in order. [ ]: non-standard residue; d: D form. Actinocin(9to1) = Cc1c2oc3c(C)ccc(C(=O)[*:1])c3nc-2c(C(=O)[*:2])c(N)c1=O; NMeV = CN[C@H](C(=O)O)C(C)C; Sar = CNCC(=O)O
Experiments:
[1] = cited from earlier work
[2] = cited from earlier work; remark: listed apart in the source
[3] = system: lipid-1 and -2 formation in MCF-7-AdrR cells; test: Effect of inhibitors of sphingolipid biosynthesis on lipid-1 and -2 formation; type: cell-based
Method: FIG. 5A, FIG. 5B, and FIG. 5C. Effect of inhibitors of sphingolipid biosynthesis on lipid-1 and -2 formation in MCF-7-AdrR cells. Cells, grown to near-confluency in 100×20 mm culture dishes, were radiolabeled with [^3 H]palmitic acid (FIG. 5A), or [^3 H]serine (FIG. 5B, FIG. 5C), in the presence or absence of 10 mM L-cycloserine (FIG. 5A), 50 μM FB1 (FIG. 5B), or 20 μM PPMP (FIG. 5C), for 24 h in RPMI-1640 medium containing 0.1% BSA. Extracted lipids were analyzed by TLC using solvent system II (FIG. 5A, FIG. 5B), or solvent system III (FIG. 5C) as described in Example I. Lac-cer, lactosylceramide.
The effects of various inhibitors of sphingolipid biosynthesis were investigated, using MCF-7-AdrR cells, labeled with either [^3 H]palmitic acid, or [^3 H]serine. The first enzymatic reaction in sphingoid base biosynthesis, catalyzed by serine:palmitoyltransferase, is the formation of 3-ketosphinganine from serine and palmitoyl-CoA (FIG. 1).

[4] = cited from earlier work; for absorption (in words): oral or unspecified
[5] = system: MCF-7-AdrR cells; test: Cell proliferation (MTS) assay: adriamycin toxicity and chemosensitization; conditions: for effect on adriamycin toxicity / chemosensitization (in words): 5.0 μM tested drug + adriamycin, 72 h, FIG. 15A, 16B
Description: FIG. 15A and FIG. 15B. […] FIG. 15B: Glycosylceramide levels in MDR Cells following drug treatment. […] In order to avoid differences in [^3 H]glycosylceramide values which account for cell death, the same amount of total radioactive lipid from each sample was applied to TLC separation.
FIG. 16A and FIG. 16B. […] FIG. 16A: Effect of PPMP on cellular glycosylceramide levels. […] [^3 H]Glycosylceramide was quantitated as described in the legend to FIG. 9.
Vehicle (acetone, ethanol) was always added to control (minus drug) wells. The cytotoxic activity of a drug was determined using the Promega CellTiter 96™ AQueous MTS cell proliferation assay kit. Each experimental point was performed in six replicates. MTS/PMS solution (20 μl/well) was aliquoted into all wells, and the cells were incubated for 2-3 h, or until an O.D. of 0.9-1.0 was obtained as a highest reading. Thereafter, absorbence at 490 nm was recorded using an ELISA plate reader (Molecular Devices, San Diego, Calif.).

[6] = system: glycosylceramide synthesis in MCF-7-AdrR cells; test: Effect of PPMP on cellular glycosylceramide levels, [3H]serine 24 h; type: cell-based; conditions: FIG. 16A
Description: FIG. 16A and FIG. 16B. […] FIG. 16A: Effect of PPMP on cellular glycosylceramide levels.

[7] = system: P388-adriamycin resistant cells; conditions: literature; cited from earlier work
[8] = system: acid sphingomyelinase; conditions: literature; cited from earlier work
[9] = in vivo; cited from earlier work
[10] = system: OVCAR-3 (MDR ovarian carcinoma); conditions: clinically relevant concentrations (Rogan et al., 1984); cited from earlier work
[11] = system: glycosylation of ceramide in MCF-7-AdrR cells (UDP-glucose:ceramide glucosyltransferase); test: Glycosylation of C6-ceramide and natural glycosphingolipid synthesis, [3H]galactose labeling; type: cell-based
Method: FIG. 14A and FIG. 14B. Effect of Tamoxifen on Ceramide Synthesis and Glycosylation in MCF-7-AdrR Cells. FIG. 14: A Influence of tamoxifen on ceramide synthesis. The experiment was conducted as described in the legend to FIG. 13. Aliquots of the total lipid extract were based-hydrolyzed as described in Example I, separated by TLC using solvent system IV, and the resolved [^3 H]ceramide was quantitated by liquid scintillation spectrometry. Results are the mean±SEM of duplicate determinations from two separate experiments. FIG. 14B: Effect of tamoxifen on glycosylation of C6 -ceramide. Cells, in 100×20 mm culture dishes, were preincubated without or with 5.0 μM tamoxifen for 30 min, followed by incubation without or with 5.0 μM C6 -ceramide:BSA (prepared at a 1:1 molar ratio) for an additional 30 min. Cells were labeled thereafter with 1.0 μCi/ml [^3 H]galactose for 24 h. [3H]Galactose uptake was determined and found to be similar in all experimental points (1.0×10^6 cpm/dish). The total extracted lipid was applied to TLC separation and [^3 H]glycosphingolipids were analyzed as described in the legend to FIG. 10. The autoradiography of a representative chromatogram is shown.
In order to explore this notion, a short-chain ceramide analog with a 6-carbon N-acyl group (C6 -ceramide), was utilized as a substrate.

[12] = system: glycosylceramide formation in MCF-7-AdrR cells; test: Inhibition of [3H]glycosylceramide formation in MCF-7-AdrR cells (TLC, liquid scintillation); type: cell-based; conditions: 5.0 μM drug, 24 h, MCF-7-AdrR, FIG. 11B; read-out: inhibition of glycosylceramide formation (cpm tritium)
Method: FIG. 9. […] Values represent the mean of determinations from three separate experiments, and are calculated as the percent glycosylceramide in the total lipid tritium extract.
FIG. 11A and FIG. 11B. […] FIG. 11: A Autoradiography. […] For autoradiography equal aliquots by volume of total lipid extract were applied to TLC plates. […] [^3 H]Glycosylceramide, visualized in panel A, was quantitated as described in the legend to FIG. 9. Each value represents mean±SEM of determinations from three separate experiments.
FIG. 12. […] [^3 H]Glycosylceramide was quantitated as described in the legend to FIG. 9. Results represents the mean±SEM of determinations from three separate experiments.
MCF-7 cells, grown in medium containing 10% FBS, were switched to media containing 5% FBS. Cell lipids were radiolabeled by adding [^3 H]serine (2.0 μCi/ml), [^3 H]palmitic acid (1.0 μCi/ml), or [^3 H]galactose (1.0 μCi/ml) to the culture medium for the indicated times. Other radiolabels can be substituted. Cells were then rinsed twice with PBS, pH 7.4, and 2 ml of ice-cold methanol containing 2% acetic acid was added. The cells were scraped free, transferred to glass test tubes (13×100 mm), and lipids were extracted by the addition of chloroform (2 ml) followed by water (2 ml). The resulting organic lower phase was withdrawn and evaporated under a stream of nitrogen. Lipids were resuspended in 100 μL of chloroform/methanol (1:1, v/v), and aliquots were applied to TLC plates.
Lipid analysis was carried out by TLC using solvent system I: chloroform/methanol/ammonium hydroxide (40:10:1, v/v) for glycosylceramide separation, solvent system II: chloroform/methanol/water (60:40:8, v/v) for sphingoglycolipid separation, or solvent system III: chloroform/methanol/acetic acid/water (50:30:7:3, v/v) for sphingomyelin separation. For determination of ceramides, an aliquot of the chloroform-soluble lipids was base-hydrolyzed in 0.1N KOH in methanol for 1 h at 37° C., lipids were re-extracted, and separated by TLC using solvent system IV: hexane/diethyl ether/formic acid (60:40:1, v/v).
Radiochromatograms were sprayed with EN^3 HANCE, and exposed for 3-7 days for autofluorgraphy. TLC areas, aligned with bands on the autoradiographs or with iodine-stained commercial lipid standards, were scraped from the plate. Water (0.5 ml) was added to the plate scrapings followed by 4.5 ml of EcoLume counting fluid, and the samples were quantitated by liquid scintillation spectrometry.

[13] = system: P-glycoprotein; conditions: literature; cited from earlier work
[14] = 10 mM L-cycloserine, [3H]palmitic acid, FIG. 5A
[15] = 5.0 μM C6-ceramide, FIG. 14B, […]

For CO[C@@]12[C@H](COC(N)=O)C3=C(C(=O)C(C)=C(N)C3=O)N1C[C@@H]1N[C@@H]12 [Mitomycin], the “fraction of dose excreted unchanged in the urine” value ([1]; human, in vivo, iv) is given as “Approximately 10%” and the “clearance from the serum (in words)” value ([1]; intravenous) is given as “rapidly cleared”.
In the case of O=NN(CCCl)C(=O)NCCCl [Carmustine, 1,3bis (2-chloroethyl)-1-nitrosourea], the “solubility in water (in words)” value [2] is given as “poorly soluble in water”.
In the case of N[C@H]1CONC1=O [L-cycloserine], the “lipid-1 formation (in words)” value [3, 14] is reported as “almost complete disappearance” and the “lipid-2 formation (in words)” value [3, 14] is reported as “major inhibition”.
For Cc1c2oc3c(C)ccc(C(=O)N[C@@H]4C(=O)N[C@H](C(C)C)C(=O)N5CCC[C@H]5C(=O)N(C)CC(=O)N(C)[C@@H](C(C)C)C(=O)O[C@@H]4C)c3nc-2c(C(=O)N[C@@H]2C(=O)N[C@H](C(C)C)C(=O)N3CCC[C@H]3C(=O)N(C)CC(=O)N(C)[C@@H](C(C)C)C(=O)O[C@@H]2C)c(N)c1=O [Actinomycin D] (I: T[dV]P[Sar][NMeV] / II: T[dV]P[Sar][NMeV]; ester I:1-I:C, II:1-II:C; linker I:N-II:N via Actinocin(9to1)), the “excreted into the urine” value ([4]; in vivo, iv) is given as 10%, the half-life ([4]; in vivo, iv) is given as “about 36 hr” and the “blood-brain barrier passage (in words)” value ([4]; in vivo) is given as “does not pass the blood-brain barrier”. The “dose excreted intact into the bile (in words)” value ([4]; in vivo) was “Half of the dose”.
For CCCCCCCCCCCCCCCC(=O)NC(CN1CCOCC1)C(O)c1ccccc1 (stereo not shown) [PPMP], the “effect on adriamycin toxicity / chemosensitization (in words)” value [5] was “clear sensitization; also recorded: effectively decreased cell survival”, the “effect of the substance alone on cell survival (in words)” value ([5]; MCF-7-AdrR, alone) was “no influence itself on cell viability; also recorded: no effect” and the “ceramide levels (in words)” value ([3]; 20 μM PPMP, FIG. 5C) was “elevation in ceramide levels”. The “lactosylceramide and gangliosides (in words)” value ([3]; 20 μM PPMP, FIG. 5C) was “concomitant reduction”, the “formation of lipid-1 and -2 (in words)” value ([3]; 20 μM PPMP, [3H]serine, FIG. 5C) was “blocked completely” and the inhibition at 5 µM ([6]; 24 h, 5.0 μM PPMP, read-out: maximal reduction in cellular glycosylceramide levels) was 86%. For the same compound, the IC50 ([6]; PPMP, [3H]serine 24 h, read-out: IC50 for inhibition of glycosylceramide formation) was 900 nM.
For COc1ccc(CCN(C)CCCOc2ccc(S(=O)(=O)c3c(C(C)C)cn4ccccc34)cc2)cc1OC [SR33557], the “reversal of MDR / adriamycin resistance in P388 cells (in words)” value [7] is listed as “reverse MDR” and the “inhibition of acid sphingomyelinase (in words)” value [8] is listed as “inhibition of acid sphingomyelinase”.
For CC[C@]1(O)C[C@H]2CN(CCc3c([nH]c4ccccc34)[C@@](C(=O)OC)(c3cc4c(cc3OC)N(C=O)[C@H]3[C@@](O)(C(=O)OC)[C@H](OC(C)=O)[C@]5(CC)C=CCN6CC[C@]43[C@@H]65)C2)C1 [Vincristine], the “distribution in blood cells (in words)” value ([4]; in vivo) is listed as “extensively concentrated in platelets”, the “plasma protein binding (in words)” value ([4]; in vivo) is listed as “bind to plasma proteins” and the “absorption (in words)” value [4] is listed as “Unpredictable absorption”. The “tolerability / toxicity (in words)” value [9] was “sever neurological toxicity”.
In the case of N.N.[Cl][Pt][Cl] [cisplatin], the “absorption (in words)” value [4] is listed as “not absorbed orally” and the “resistance of OVCAR-3 to the drug (in words)” value [10] is listed as “resistant”.
With CCCCCCCCCCCCC/C=C/[C@@H](O)[C@H](CO)NC(=O)CCCCC [C6 -ceramide] the “natural glycosylceramide level (in words)” value ([11]; 5.0 μM C6-ceramide, FIG. 14B) was “not altered”, the “reduction of ganglioside synthesis” value [11, 15] was 35% and the “reduction of natural lactosylceramide synthesis” value [11, 15] was 33%. The “formation of C6-glycosylceramide (in words)” value ([11]; cells incubated with C6-ceramide) was “clearly visible”.
For CCC(=C(c1ccccc1)c1ccccc1)c1ccccc1 [triphenylbutene], the “effect on adriamycin toxicity / chemosensitization (in words)” value [5] was “no effect” and the inhibition at 5 µM [12] was 13%.
In the case of CCCCC(C)C(OC(=O)CC(CC(=O)O)C(=O)O)C(CC(C)CC(O)CCCCC(O)CC(O)C(C)N)OC(=O)CC(CC(=O)O)C(=O)O (stereo not shown) [FB1], the “level of both lipid-1 and -2 (in words)” value ([3]; 50 μM FB1, [3H]serine, FIG. 5B) is reported as “profound reduction”.
For O=NN(CCCl)C(=O)NC1CCCCC1 [Lomustine, 1-(2-chloro-ethyl)-3-cyclohexyl-1 nitrosourea], the “ionization (in words)” value ([2]; physiological pH) is given as “relatively unionized”, the “solubility in water (in words)” value [2] is given as “relatively insoluble” and the “tissue levels vs plasma levels (in words)” value ([4]; 15 minutes after intravenous administration) is given as “comparable to plasma levels”. The “excretion of radioactivity as degradation products (in words)” value ([4]; within 24 hours, oral 30 mg/m^2 to 100 mg/m^2) was “about half”.
For COc1cc(C[C@H]2c3cc(OC)c(OC)cc3CCN2C)c(Oc2cc3c(cc2OC)-c2c(OC)c(OC)cc4c2[C@H](C3)N(C)CC4)cc1OC [thaliblastine], the “binding to P-glycoprotein (in words)” value [13] is given as “binds to P-glycoprotein” and the “reversal of MDR / adriamycin resistance in P388 cells (in words)” value [7] is given as “reverses adriamycin resistance”.

— patent US5885786A, “Methods for screening of substances for inhibition of multidrug resistance” (priority 1996, dated 1999)
